Measurements reported in patent EP2957607B1, “IMAGE FORMING METHOD” (Konica Minolta, Inc., priority 2014, dated 2015).

Assay: pKa value (acid dissociation constant) of the adsorption inhibitor
Assay type: physicochemical
From the text: The pKa value is also called the acid dissociation constant, which can be determined by a conventional method. The pKa value can be determined by, for example, the method described in Jikken Kagaku Koza 5, Netsuteki Sokutei oyobi Heiko (Experimental Chemistry Lecture 5, Thermal Measurements and Equilibrium), page 460, edited by The Chemical Society of Japan, Maruzen Co., Ltd.

pKa: < 5.5
Compound: O=C(O)CC(O)C(=O)O (stereo not shown) [malic acid, Malic acid]
